Test results: ChEMBL document CHEMBL1201862, “PubChem BioAssay data set” (2004)
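48-hour exposure; five concentrations; linearly interpolated endpoints. GI50 marks 50% less growth.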 The source made the active and inactive calls. Cut-off read from the data, not from the text of the source: active = GI50 up to about 1.1 µM and inactive = higher.

How the values were obtained:
Assay in all cases: NCI-60 cell line screen, 48 h
IGROV-1 = test system: IGROV-1
HOP-62 = test system: HOP-62
SF-539 = test system: SF-539
HCC 2998 = test system: HCC 2998
M14 = test system: M14
SN12C = test system: SN12C
NCI-H522 = test system: NCI-H522
Hs-578T = test system: Hs-578T
SK-MEL-2 = test system: SK-MEL-2
RXF 393 = test system: RXF 393
LOX IMVI = test system: LOX IMVI
HL-60 = test system: HL-60
SNB-75 = test system: SNB-75
SK-MEL-5 = test system: SK-MEL-5
UACC-62 = test system: UACC-62
786-0 = test system: 786-0
HCT-15 = test system: HCT-15
SK-MEL-28 = test system: SK-MEL-28
MDA-MB-435 = test system: MDA-MB-435
MOLT-4 = test system: MOLT-4

Compound | GI50 (IGROV-1) | GI50 (HOP-62) | GI50 (SF-539) | GI50 (HCC 2998) | GI50 (M14) | GI50 (SN12C) | GI50 (NCI-H522) | GI50 (Hs-578T) | GI50 (SK-MEL-2) | GI50 (RXF 393) | GI50 (LOX IMVI) | GI50 (HL-60) | GI50 (SNB-75) | GI50 (SK-MEL-5) | GI50 (UACC-62) | GI50 (786-0) | GI50 (HCT-15) | GI50 (SK-MEL-28) | GI50 (MDA-MB-435) | GI50 (MOLT-4)
O=C1C(Cl)=C(Nc2ccc(S(=O)(=O)Nc3ccccn3)cc2)C(=O)c2ccccc21 | 5.93 µM (inactive) | 13 µM (inactive) | 4.54 µM (inactive) | 12.2 µM (inactive) | 5.93 µM (inactive) | 11.3 µM (inactive) | 5.02 µM (inactive) | 13.1 µM (inactive) | 5.7 µM (inactive) | 7.35 µM (inactive) | 1.78 µM (inactive) | 3.3 µM (inactive) | 7.91 µM (inactive) | 4.4 µM (inactive) | 5.6 µM (inactive) | 8.22 µM (inactive) | 4.36 µM | 16.3 µM (inactive) | 6.55 µM (inactive) | 3.61 µM (inactive)
CCOC(=O)NC(NCC(O)c1ccccc1)(C(F)(F)F)C(F)(F)F (stereo not given) | > 100 µM (inactive) | > 100 µM (inactive) | > 100 µM (inactive) | > 100 µM (inactive) | > 100 µM (inactive) | > 100 µM (inactive) | > 100 µM (inactive) | > 100 µM (inactive) | > 100 µM (inactive) | 43.4 µM (inactive) | > 100 µM (inactive) | > 100 µM (inactive) | > 100 µM (inactive) | > 100 µM (inactive) | > 100 µM (inactive) |  | > 100 µM | > 100 µM (inactive) | > 100 µM (inactive) | > 100 µM (inactive)
Cn1c(=S)[nH]c2sc3c(c2c1=O)CCSC3 | 23.9 µM (inactive) | 25.9 µM (inactive) | 54.1 µM (inactive) | 21.8 µM (inactive) | 35.2 µM (inactive) | 40 µM (inactive) | 36.9 µM (inactive) | > 100 µM (inactive) | > 100 µM (inactive) | 3.05 µM (inactive) | 36.6 µM (inactive) | 16.7 µM (inactive) | > 100 µM (inactive) | 36 µM (inactive) | 24.8 µM (inactive) | 76.6 µM (inactive) | 31 µM |  | 49.1 µM (inactive) | 33.8 µM (inactive)
C=C(C(=O)OC)N1C(=O)CC(C)C1=O (stereo not given) | 15.9 µM (inactive) | 17.5 µM (inactive) | 19 µM (inactive) | 16.1 µM (inactive) | 13.7 µM (inactive) | 16.1 µM (inactive) | 1.9 µM (inactive) | 24.3 µM (inactive) | 16.9 µM (inactive) | 9.71 µM (inactive) | 7.14 µM (inactive) | 1.37 µM (inactive) | 17 µM (inactive) | 16.9 µM (inactive) | 15.2 µM (inactive) | 10.7 µM (inactive) | 7.45 µM | 9.55 µM (inactive) | 16.9 µM (inactive) | 3.33 µM (inactive)
CC1=C(C(=O)Nc2ccccc2)C(c2ccc(C)o2)C(C#N)=C(SCc2ccccc2)N1 (stereo not given) | 52.6 µM (inactive) | > 100 µM (inactive) | > 100 µM (inactive) | > 100 µM (inactive) | > 100 µM (inactive) | > 100 µM (inactive) | 9.55 µM (inactive) | > 87.3 µM (inactive) | > 100 µM (inactive) | > 37.6 µM (inactive) | > 100 µM (inactive) | 17.7 µM (inactive) | > 100 µM (inactive) | 34.5 µM (inactive) | 18.9 µM (inactive) | > 100 µM (inactive) | 12.7 µM | > 100 µM (inactive) | 4.58 µM (inactive) | 7.55 µM (inactive)
N#Cc1cc2cc3c4c(c2oc1=O)CCCN4CCC3 | > 100 µM (inactive) | > 100 µM (inactive) | > 100 µM (inactive) | > 100 µM (inactive) | > 100 µM (inactive) | > 100 µM (inactive) | > 100 µM (inactive) | > 100 µM (inactive) | > 100 µM (inactive) | > 100 µM (inactive) | > 100 µM (inactive) | > 100 µM (inactive) | > 76.4 µM (inactive) | > 100 µM (inactive) | > 100 µM (inactive) | > 100 µM (inactive) | > 100 µM | > 100 µM (inactive) | > 100 µM (inactive) | > 100 µM (inactive)
OCCNc1nc2c(N3CCCC3)nc(N3CCNCC3)nc2nc1NCc1ccccc1 | 11.9 µM (inactive) | 2.63 µM (inactive) | 16.3 µM (inactive) | 15.2 µM (inactive) | 15.7 µM (inactive) | 16.7 µM (inactive) | 12.7 µM (inactive) | 20.3 µM (inactive) | 15 µM (inactive) | 11.3 µM (inactive) | 14.7 µM (inactive) | 15.5 µM (inactive) | 13.3 µM (inactive) | 12.6 µM (inactive) | 17.3 µM (inactive) | 14.8 µM (inactive) | 16.4 µM | 17.5 µM (inactive) | 12.4 µM (inactive) | 16 µM (inactive)
c1ccc(N2N=C3N(c4ccccc4)C2N3c2ccccc2)cc1 | 31.4 µM (inactive) | 58.2 µM (inactive) | 22.3 µM (inactive) | 27.6 µM (inactive) | 20.3 µM (inactive) | 48 µM (inactive) | 21.6 µM (inactive) | 57.7 µM (inactive) | 24.3 µM (inactive) | 45.3 µM (inactive) | 21.1 µM (inactive) | 38.5 µM (inactive) | 17.8 µM (inactive) | 21.6 µM (inactive) | 25.6 µM (inactive) |  | 42.9 µM | 19.1 µM (inactive) | 17.6 µM (inactive) | 16.5 µM (inactive)
CCCCCCCCCCCCCCCCOP(=O)(O)OCC(NC(C)=O)C(=O)O (stereo not given) | 24.3 µM (inactive) | 19.2 µM (inactive) | 32.4 µM (inactive) | > 100 µM (inactive) | > 100 µM (inactive) | 42.6 µM (inactive) | 5.64 µM (inactive) | 27.9 µM (inactive) | > 100 µM (inactive) | 21.7 µM (inactive) | > 100 µM (inactive) | 43.8 µM (inactive) | 20 µM (inactive) | > 100 µM (inactive) |  | 73.3 µM (inactive) | 18.2 µM | > 100 µM (inactive) | 35.4 µM (inactive) | 24.2 µM (inactive)
CCCCCCCCCCCCCCCCCCNc1ccn(C2OC(COP(=O)(O)OCC3OC(n4ccc(NC(=O)CCCCCCCCCCCCCCCCC)nc4=O)C(OC(C)=O)C3OC(C)=O)C(OC(C)=O)C2OC(C)=O)c(=O)n1 (stereo not given) | > 100 µM (inactive) | > 100 µM (inactive) | > 100 µM (inactive) | > 100 µM (inactive) | > 100 µM (inactive) | > 100 µM (inactive) | > 100 µM (inactive) | > 100 µM (inactive) | > 100 µM (inactive) | > 100 µM (inactive) | > 100 µM (inactive) | > 100 µM (inactive) | > 100 µM (inactive) | > 100 µM (inactive) | > 100 µM (inactive) | > 100 µM (inactive) | > 100 µM | > 100 µM (inactive) | > 100 µM (inactive) | > 100 µM (inactive)
C/C=C/C(O)P1(=O)N(Cc2ccccc2)[C@@H]2CCCC[C@H]2N1Cc1ccccc1 (stereo not given in full) | > 25 µM (inactive) | > 25 µM (inactive) | > 25 µM (inactive) | > 25 µM (inactive) | > 25 µM (inactive) | > 25 µM (inactive) | > 25 µM (inactive) | > 25 µM (inactive) | > 25 µM (inactive) | > 25 µM (inactive) | > 25 µM (inactive) | > 25 µM (inactive) | > 25 µM (inactive) | > 25 µM (inactive) | > 25 µM (inactive) | > 25 µM (inactive) | > 25 µM | > 25 µM (inactive) | > 25 µM (inactive) | 19.9 µM (inactive)
COc1cccc(C2C3=C(COC3=O)Oc3cc4c(cc32)OCO4)c1 (stereo not given) | 0.0738 µM (active) | 0.033 µM (active) | 0.0211 µM (active) | 0.0723 µM (active) | 0.0307 µM (active) | 0.078 µM (active) | < 0.01 µM (active) | < 0.0176 µM (active) | < 0.0247 µM (active) | 0.0251 µM (active) | < 0.0155 µM (active) | < 0.0146 µM (active) | 0.0194 µM (active) | 0.0175 µM (active) | 0.0134 µM (active) | 0.0344 µM (active) | 0.0172 µM | 0.0327 µM (active) | < 0.01 µM (active) | 0.0256 µM (active)
Clc1cccc(Cl)c1C1ON=C(c2ccccc2)N1C12CC3CC(CC(C3)C1)C2 (stereo not given) | 29.1 µM (inactive) | 31.6 µM (inactive) | 66.1 µM (inactive) | 13.8 µM (inactive) | 22.3 µM (inactive) | 41.6 µM (inactive) | 32.2 µM (inactive) | 24.2 µM (inactive) | 12.1 µM (inactive) | 39.1 µM (inactive) | 7.26 µM (inactive) | 3.3 µM (inactive) | 0.387 µM (active) | 4.57 µM (inactive) | 24 µM (inactive) | 32.4 µM (inactive) | 9.75 µM | 45 µM (inactive) | 17.9 µM (inactive) | 7.31 µM (inactive)
Cc1cc(=O)oc2cc(O)ccc12 [HYMECROMONE] | > 100 µM (inactive) | > 100 µM (inactive) | > 100 µM (inactive) | > 100 µM (inactive) |  | > 100 µM (inactive) | > 100 µM (inactive) | > 100 µM (inactive) | > 100 µM (inactive) | > 100 µM (inactive) | > 100 µM (inactive) | > 100 µM (inactive) | 39.1 µM (inactive) | > 100 µM (inactive) | > 100 µM (inactive) | > 100 µM (inactive) | > 100 µM | > 100 µM (inactive) | > 100 µM (inactive) | > 100 µM (inactive)
